In general, IC50 refers to the midpoint of a concentration-inhibition curve. A low value points to inhibition by little substance.

One experiment relates to Long-Evans rats. Put plainly: Novel Object Recognition (NOR) test in rats with scopolamine-induced cognitive impairment. The class given is in vivo, rat. Conditions: male Long-Evans rats, scopolamine 0.3 mg/kg i.p.; statistically significant difference in discrimination index vs scopolamine alone group. The procedure:
Six-week old male Long-Evans rats were used for this test. For 2 days before starting the test, the rats were acclimated to experimental operations such as administration and a test device (that is, a black or gray plastic cage with a width of 40 cm, a depth of 30 cm and a height of 45 cm). Each test compound was dissolved in a 0.1 N hydrochloric acid to be orally administered. Thirty minutes after the administration, scopolamine hydrobromide was intraperitoneally administered at a 0.3 mg/kg dose, so as to induce cognitive impairment. After another 30 minutes, each rat was acclimated in the test device for 3 minutes, and thereafter, two blocks in the same shape were put in the test device as acquisition trial, and exploring time for each block was measured for 5 minutes. Two hours after the acquisition trial, the rat was acclimated in the test device for 3 minutes, and thereafter, the same block as those used in the acquisition trial and a new block in a different shape were put in the cage for retention trial. The exploring time for each block was measured for 3 minutes, and a ratio of the exploring time for the newly used block to the sum of the exploring times for the respective blocks was calculated as a discrimination index. The thus obtained discrimination indexes were compared among a group of rats to which a medium alone was administered (medium group), a group of rats to which scopolamine alone was administered (scopolamine alone group) and a group of rats to which both the test compound and scopolamine were administered, so as to evaluate the action of the test compound on the novel object recognition function (cognitive function) of the rats.
Each discrimination index was shown as an average and a standard error. The statistical significance between the medium group and the scopolamine alone group was analyzed by the independent t-test. The statistical significance between the scopolamine alone group and each sample group was analyzed by one-way analysis of variance and then by Dunnett's multiple comparison test. The significance level was set to 5% on both sides. […] The analysis was carried out by using Prism 5 for Windows for Japanese, ver. 5.03.
A minimum effective dose at which a statistically significant difference was found between a group suffering from the cognitive impairment induced by scopolamine and a group treated with each compound is shown in Table 10.

A further experiment addresses human mGluR2 (Homo sapiens (Human), UniProt Q14416). Put plainly: [35S]GTPγS binding assay (Affinity to mGluR2). The class given is biochemical. Particulars: cell membrane fraction of HEK293 cells stably expressing human mGluR2; glutamic acid 10 μM. In outline: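 Membranes from HEK293 cells stably co-expressing human mGluR2 and SLC1A3 (1.8–3 μg protein) preincubated with compound 30 min at RT, then stimulated with 10 μM glutamate 15 min; [35S]GTPγS (0.8 kBq) with WGA-SPA beads 1 h, buffer with 3 μM GDP, 100 mM NaCl, 1 mM MgCl2. IC50 from inhibition of glutamate-specific binding.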

Marks after values point to notes of the source that are not given here.

Sequence of human mGluR2 (Q14416 19-872): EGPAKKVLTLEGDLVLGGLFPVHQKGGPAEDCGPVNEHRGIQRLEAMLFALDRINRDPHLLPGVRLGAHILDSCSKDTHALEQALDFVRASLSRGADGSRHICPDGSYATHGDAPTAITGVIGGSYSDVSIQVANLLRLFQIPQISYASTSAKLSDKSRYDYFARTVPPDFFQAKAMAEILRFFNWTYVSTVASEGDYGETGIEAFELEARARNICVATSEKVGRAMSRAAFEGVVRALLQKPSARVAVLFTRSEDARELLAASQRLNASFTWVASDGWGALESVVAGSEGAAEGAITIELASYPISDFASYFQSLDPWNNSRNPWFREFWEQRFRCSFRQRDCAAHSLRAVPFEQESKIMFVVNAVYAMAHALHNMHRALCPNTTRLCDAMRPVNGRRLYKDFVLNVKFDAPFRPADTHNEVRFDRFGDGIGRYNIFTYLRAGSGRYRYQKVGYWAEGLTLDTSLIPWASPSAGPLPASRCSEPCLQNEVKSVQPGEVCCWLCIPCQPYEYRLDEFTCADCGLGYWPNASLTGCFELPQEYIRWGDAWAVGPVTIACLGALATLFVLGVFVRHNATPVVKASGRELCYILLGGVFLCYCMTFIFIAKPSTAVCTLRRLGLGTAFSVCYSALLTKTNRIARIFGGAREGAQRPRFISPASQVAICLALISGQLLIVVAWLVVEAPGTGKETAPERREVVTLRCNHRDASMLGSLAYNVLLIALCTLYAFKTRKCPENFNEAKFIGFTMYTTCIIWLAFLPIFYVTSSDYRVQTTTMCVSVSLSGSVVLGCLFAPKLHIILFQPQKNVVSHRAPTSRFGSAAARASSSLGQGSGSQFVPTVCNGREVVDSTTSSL

On to `COc1cc(-c2nc(-c3cc(C)nc(C)c3)c3n2C[C@@H](CF)OCC3)ccc1Cl` [Example 11, (S)-3-(4-chloro-3-methoxyphenyl)-1-(2,6-dimethylpyridin-4-yl)-6-fluoromethyl-5,6,8,9-tetrahydroimidazo[1,5-d][1,4]oxazepine], for which, in the experiment on Long-Evans rats, the Minimum effective dose is >1* mg/kg, p.o. The half-inhibitory concentration (IC50) at human mGluR2 was found to be 0.0114 µM.

(Values after patent US9458176B2, “Tetrahydroimidazo(1,5-D)[1,4]oxazepine derivative” (Eisai R&D Management Co., Ltd., priority 2013, dated 2016).)
